Common to all, as to test: ≥ marks a high value that may be exact or a test limit, other limits are often not marked, values filed in µg/mL are converted to µM
Test [1] concerns Candida albicans CCARM 14021.
The subject of test [2] is Candida albicans CCARM 14022.
A further test concerns Candida albicans SC5314.
In test [3] the test system is Candida albicans CCARM 14020.
In test [4] the test system is Escherichia coli DH5alpha.
The subject of test [5] is Kocuria rhizophila DSM 348.
Test [6] deals with Bacillus subtilis DSM 347.
In test [7] the test system is Franconibacter helveticus DSM 18396.
The test system of test [8] is Lactobacillus acidophilus ATCC 53544.
Test [9] relates to Limosilactobacillus fermentum ATCC 9338.
For test [10], the system named is Staphylococcus aureus ATCC 6538.
The subject of test [11] is Limosilactobacillus fermentum A1753.
The subject of test [12] is Streptococcus gordonii ATCC 35105.
Test [13] concerns Streptococcus sanguinis JCM 5708.
For test [14], the system named is Streptococcus mutans UA159.
The subject of test [15] is Streptococcus gordonii DL1.
For test [16], the system named is Actinomyces naeslundii ATCC 12104.
Test [17] has as its system Streptococcus sobrinus 6715.
Test [18] concerns Streptococcus salivarius ATCC 27945.
Test [19] has as its system Streptococcus sanguinis ATCC 10556.
Test [20] deals with Enterococcus faecalis ATCC 29212.
The test system of test [21] is Lactobacillus acidophilus ATCC 14931.
Test [22] has as its system Lacticaseibacillus casei ATCC 393.
Test [23] deals with Streptococcus salivarius ATCC 13419.
The subject of test [24] is Escherichia coli ATCC 11219.
In test [25] the test system is Pseudomonas aeruginosa ATCC 13388.
Test [26] deals with Klebsiella pneumoniae ATCC 10031.
Test [27] relates to Salmonella enterica subsp. enterica serovar Typhimurium ATCC 14028.
The test system of test [28] is Salmonella typhimurium KCTC 1926.
Test [29] concerns Staphylococcus epidermidis KCTC 3096.
The test system of test [30] is Pseudomonas aeruginosa KCTC 1637.
For test [31], the system named is Trichosporon beigelii KCTC 7707.
Test [32] has as its system Candida albicans TIMM 1768.
The test system of test [33] is Bacillus subtilis KCTC 1918.
Test [34] concerns Pectobacterium carotovorum.

SMILES strings stand for the structures. ≈ marks a conversion by molar mass, not a printed value. Where “and” joins values, the source holds several entries; their conditions need not be identical. Equal entries are not always repeated. Where only a bound is given, the exact number is not on record here.

One may read the MIC as the least concentration at which growth counts as inhibited. Consider `CC(C)C[C@H](NC(=O)[C@H](C)N)C(=O)N[C@@H](CC(C)C)C(=O)N[C@@H](Cc1cnc[nH]1)C(=O)N[C@@H](Cc1cnc[nH]1)C(=O)NCC(=O)N[C@@H](Cc1ccc(O)cc1)C(=O)N[C@@H](CCCCN)C(=O)N[C@@H](CCCN=C(N)N)C(=O)N[C@@H](CCCCN)C(=O)N[C@@H](Cc1ccccc1)C(=O)N[C@@H](Cc1cnc[nH]1)C(N)=O` [ALLHHGYKRKFH], for which the MIC stood at 21.2 µM (≈ 32 µg/mL) in test [1], 21.2 µM (≈ 32 µg/mL) in test [2], 15 µM (≈ 22.6 µg/mL) with Candida albicans SC5314 and 7.51 µM (≈ 11.3 µg/mL) in [3].

For the compound `CC[C@H](C)[C@H](NC(=O)CN)C(=O)NCC(=O)N[C@@H](CCCCN)C(=O)N[C@@H](Cc1ccccc1)C(=O)N[C@@H](CC(C)C)C(=O)N[C@@H](Cc1cnc[nH]1)C(=O)N[C@@H](CO)C(=O)N[C@@H](C)C(=O)N[C@@H](CCCCN)C(=O)N[C@@H](CCCCN)C(=O)N[C@@H](Cc1ccccc1)C(=O)NCC(=O)N[C@@H](CCCCN)C(=O)N[C@@H](C)C(=O)N[C@@H](C)C(=O)N[C@H](C(=O)NCC(=O)N[C@@H](CCC(=O)O)C(=O)N[C@H](C(=O)N[C@@H](CCSC)C(=O)N[C@@H](CC(N)=O)C(=O)N[C@@H](CO)C(=O)O)[C@@H](C)CC)C(C)C` [GIGKFLHSAKKFGKAAVGEIMNS], the minimum inhibitory concentration (MIC) in [4] is not below 128 µM; in [5], 4 µM (≈ 9.56 µg/mL); in test [6], 16 µM (≈ 38.3 µg/mL); in test [7] it was not below 128 µM.

Consider `CC(C)C[C@H](NC(=O)CN)C(=O)N[C@@H](CC(C)C)C(=O)N[C@@H](Cc1c[nH]c2ccccc12)C(=O)N[C@@H](Cc1cnc[nH]1)C(=O)N[C@@H](CC(C)C)C(=O)N[C@@H](CC(C)C)C(=O)N[C@@H](Cc1cnc[nH]1)C(=O)N[C@@H](Cc1cnc[nH]1)C(=O)N[C@@H](CC(C)C)C(=O)N[C@@H](CC(C)C)C(=O)N[C@@H](Cc1cnc[nH]1)C(N)=O` [GLLWHLLHHLLH], for which the MIC in [8] is 3.14 µM and 4.92 µM; in [9], 2.69 µM (≈ 4 µg/mL); in test [10], 7.17 µM and 14.3 µM; in [11], 2.02 µM and 3.14 µM; in test [12] it was 10.7 µM and 21.5 µM; in test [13] it was 5.37 µM and 10.7 µM. The MIC is 4.5 µM and 4.48 µM and 6.27 µM in test [14]; 5.37 µM (≈ 7.99 µg/mL) in [15]; 2.69 µM (≈ 4 µg/mL) in test [16]; 10.7 µM and 4.03 µM and 8.06 µM in test [17]; 2.47 µM and 4.92 µM in test [18]; 5.37 µM (≈ 7.99 µg/mL) in [19]. Also, the MIC is 25.1 µM and 50.2 µM in [20]; 2.69 µM (≈ 4 µg/mL) in test [21]; 2.69 µM and 3.14 µM and 6.27 µM in test [22]; 5.37 µM (≈ 7.99 µg/mL) in test [23].

Take `CC[C@H](C)[C@H](NC(=O)CN)C(=O)N[C@@H](Cc1cnc[nH]1)C(=O)N[C@@H](CC(=O)O)C(=O)N[C@H](C(=O)N[C@@H](CC(C)C)C(=O)N[C@@H](CCCCN)C(=O)N[C@@H](Cc1ccc(O)cc1)C(=O)NCC(=O)N[C@@H](C)C(=O)N1CCC[C@H]1C(=O)N[C@@H](CO)C(N)=O)[C@@H](C)CC` [GIHDILKYGAPS]: the minimum inhibitory concentration (MIC) in test [24] is 15 µM (≈ 19 µg/mL); in test [10], 20 µM (≈ 25.4 µg/mL); in test [25], not below 50 µM; in test [26], 10 µM (≈ 12.7 µg/mL); in test [27] it was more than 50 µM.

`CC[C@H](C)[C@H](NC(=O)CNC(=O)[C@@H](NC(=O)[C@H](CCCCN)NC(=O)[C@H](CCCCN)NC(=O)[C@H](Cc1ccccc1)NC(=O)[C@H](CC(C)C)NC(=O)[C@H](CCCCN)NC(=O)[C@H](Cc1c[nH]c2ccccc12)NC(=O)[C@@H](N)CCCCN)[C@@H](C)CC)C(=O)NCC(=O)N[C@@H](CCCCN)C(=O)N[C@@H](Cc1ccccc1)C(=O)N[C@@H](CC(C)C)C(=O)N[C@@H](CCCCN)C(=O)N[C@@H](CCCCN)C(=O)N[C@@H](CCCCN)C(N)=O` [KWKLFKKIGIGKFLKKK]: the minimum inhibitory concentration (MIC) worked out at 0.19 µM (≈ 0.397 µg/mL) in test [28]; 3.12 µM (≈ 6.52 µg/mL) in test [29]; 2.21 µM (≈ 4.61 µg/mL) in test [30]; 6.25 µM (≈ 13.1 µg/mL) in [31]; 12.5 µM (≈ 26.1 µg/mL) in [32]; 3.12 µM (≈ 6.52 µg/mL) in [33].

In test [34], `CC(C)C[C@H](NC(=O)[C@H](CC(N)=O)NC(=O)[C@H](Cc1ccc(O)cc1)NC(=O)[C@@H]1CCCN1C(=O)[C@@H]1CCCN1)C(=O)N[C@@H](CC(N)=O)C(=O)N[C@@H](CO)C(=O)N[C@@H](Cc1cnc[nH]1)C(=O)N[C@H](C(=O)N[C@@H](CCC(N)=O)C(=O)N[C@@H](CCC(=O)O)C(=O)N[C@@H](Cc1ccc(O)cc1)C(=O)N[C@@H](CO)C(=O)N[C@@H](CCCCN)C(=O)N1CCC[C@H]1C(=O)N[C@@H](CCC(=O)O)C(=O)N[C@@H](CC(=O)O)C(=O)N[C@H](C(=O)N[C@@H](Cc1ccccc1)C(=O)N[C@@H](CC(=O)O)C(=O)O)[C@@H](C)O)[C@@H](C)O` [PPYNLNSHTQEYSKPEDTFD] returned an MIC of 4.47 µM (≈ 10.7 µg/mL).
